Results reported in ChEMBL document CHEMBL5584219 (Bioorg Med Chem Lett, 2024).
Activity calls are given as the source filed them. The rule behind the calls is not given here.

Key:
A549 [1] = assay: Induction of cell cycle arrest in human A549 cells assessed as accumulation of cells at S phase at 10 uM incubated for 48 hrs by flow cytometry analysis (reference value: 46.37%); format: functional
A549 [2] = assay: Antiproliferative activity against human A549 cells assessed as inhibition of cell growth incubated for 48 hrs in presence of erlotinib by MTT assay; format: functional, cell-based; conditions: A549, 48 h
A549 [3] = assay: Induction of apoptosis in human A549 cells assessed as viable cells at 10 uM incubated for 48 hrs by annexin V FITC and propidium iodide based flow cytometry (reference value: 95.6 %); format: functional; conditions: read-out: Activity
A549 [4] = assay: Induction of apoptosis in human A549 cells assessed as early apoptotic cells at 10 uM incubated for 48 hrs by annexin V FITC and propidium iodide based flow cytometry (reference value: 2.13 %); format: functional
A549 [5] = assay: Antiproliferative activity against human A549 cells assessed as inhibition of cell growth incubated for 48 hrs by MTT assay; format: functional, cell-based; conditions: A549, 48 h
[6] = Antiproliferative activity against human PC9 Gefitinib-resistant (GR) cell assessed as inhibition of cell growth incubated for 48 hrs in presence of erlotinib by MTT assay; format: functional, cell-based; conditions: Gefitinib-resistant PC9, 48 h
A549 [7] = assay: Induction of apoptosis in human A549 cells assessed as viable cells at 10 uM incubated for 48 hrs in presence of erlotinib by annexin V FITC and propidium iodide based flow cytometry (reference value: 95.6 %); format: functional; conditions: read-out: Activity
PC-9 [8] = assay: Antiproliferative activity against human PC-9 cells assessed as inhibition of cell growth incubated for 48 hrs by MTT assay; format: functional, cell-based; conditions: PC-9, 48 h
A549 [9] = assay: Induction of cell cycle arrest in human A549 cells assessed as accumulation of cells at G0/G1 phase at 10 uM incubated for 48 hrs in presence of erlotinib by flow cytometry analysis (reference value: 53.63%); format: functional
A549 [10] = assay: Induction of apoptosis in human A549 cells assessed as necrotic cells at 10 uM incubated for 48 hrs by annexin V FITC and propidium iodide based flow cytometry (reference value: 1.49 %); format: functional
A549 [11] = assay: Induction of apoptosis in human A549 cells assessed as late apoptotic cells at 10 uM incubated for 48 hrs by annexin V FITC and propidium iodide based flow cytometry (reference value: 0.76 %); format: functional
NCI-H460 [12] = assay: Antiproliferative activity against human NCI-H460 cells assessed as inhibition of cell growth incubated for 48 hrs in presence of erlotinib by MTT assay; format: functional, cell-based; conditions: NCI-H460, 48 h
A549 [13] = assay: Induction of apoptosis in human A549 cells assessed as necrotic cells at 10 uM incubated for 48 hrs in presence of erlotinib by annexin V FITC and propidium iodide based flow cytometry (reference value: 1.49 %); format: functional
A549 [14] = assay: Induction of cell cycle arrest in human A549 cells assessed as accumulation of cells at S phase at 10 uM incubated for 48 hrs in presence of erlotinib by flow cytometry analysis (reference value: 46.37%); format: functional
PC-9 [15] = assay: Antiproliferative activity against human PC-9 cells assessed as inhibition of cell growth incubated for 48 hrs in presence of erlotinib by MTT assay; format: functional, cell-based; conditions: PC-9, 48 h
A549 [16] = assay: Induction of cell cycle arrest in human A549 cells assessed as accumulation of cells at G0/G1 phase at 10 uM incubated for 48 hrs by flow cytometry analysis (reference value: 53.63%); format: functional
A549 [17] = assay: Induction of apoptosis in human A549 cells assessed as early apoptotic cells at 10 uM incubated for 48 hrs in presence of erlotinib by annexin V FITC and propidium iodide based flow cytometry (reference value: 2.13 %); format: functional
[18] = Antiproliferative activity against human PC9 Gefitinib-resistant (GR) cell assessed as inhibition of cell growth incubated for 48 hrs by MTT assay; format: functional, cell-based; conditions: Gefitinib-resistant PC9, 48 h
A549 [19] = assay: Induction of apoptosis in human A549 cells assessed as late apoptotic cells at 10 uM incubated for 48 hrs in presence of erlotinib by annexin V FITC and propidium iodide based flow cytometry (reference value: 0.76 %); format: functional
NCI-H460 [20] = assay: Antiproliferative activity against human NCI-H460 cells assessed as inhibition of cell growth incubated for 48 hrs by MTT assay; format: functional, cell-based; conditions: NCI-H460, 48 h
A549 [21] = assay: Induction of cell cycle arrest in human A549 cells assessed as accumulation of cells at S phase at 10 uM incubated for 48 hrs in presence of 10-hydroxyl-evodiamine by flow cytometry analysis (reference value: 46.37%); format: functional
A549 [22] = assay: Induction of apoptosis in human A549 cells assessed as late apoptotic cells at 10 uM incubated for 48 hrs in presence of 10-hydroxyl-evodiamine by annexin V FITC and propidium iodide based flow cytometry (reference value: 0.76 %); format: functional
A549 [23] = assay: Induction of apoptosis in human A549 cells assessed as viable cells at 10 uM incubated for 48 hrs in presence of 10-hydroxyl-evodiamine by annexin V FITC and propidium iodide based flow cytometry (reference value: 95.6 %); format: functional; conditions: read-out: Activity
A549 [24] = assay: Induction of cell cycle arrest in human A549 cells assessed as accumulation of cells at G0/G1 phase at 10 uM incubated for 48 hrs in presence of 10-hydroxyl-evodiamine by flow cytometry analysis (reference value: 53.63%); format: functional
A549 [25] = assay: Induction of apoptosis in human A549 cells assessed as necrotic cells at 10 uM incubated for 48 hrs in presence of 10-hydroxyl-evodiamine by annexin V FITC and propidium iodide based flow cytometry (reference value: 1.49 %); format: functional
A549 [26] = assay: cells; conditions: Homo sapiens, A549, 48 h
A549 [27] = assay: Induction of apoptosis in human A549 cells assessed as early apoptotic cells at 10 uM incubated for 48 hrs in presence of 10-hydroxyl-evodiamine by annexin V FITC and propidium iodide based flow cytometry (reference value: 2.13 %); format: functional
PC-9 [28] = assay: Antiproliferative activity against human PC-9 cells assessed as inhibition of cell growth incubated for 48 hrs in presence of 10-hydroxyl-evodiamine by MTT assay; format: functional, cell-based; conditions: PC-9, 48 h
[29] = Antiproliferative activity against human PC9 Gefitinib-resistant (GR) cell assessed as inhibition of cell growth incubated for 48 hrs in presence of evodiamine by MTT assay; format: functional, cell-based; conditions: Gefitinib-resistant PC9, 48 h
PC-9 [30] = assay: Antiproliferative activity against human PC-9 cells assessed as inhibition of cell growth incubated for 48 hrs in presence of evodiamine by MTT assay; format: functional, cell-based; conditions: PC-9, 48 h
cells = conditions: Homo sapiens, Gefitinib-resistant PC9, 48 h
A549 [31] = assay: cells; conditions: Homo sapiens, A549, 48 h; remark: listed apart in the source
Description: Antiproliferative activity against human A549 cells assessed as inhibition of cell growth incubated for 48 hrs in presence of evodiamine by MTT assay

A549 [32] = assay: Induction of apoptosis in human A549 cells assessed as upregulation of caspase-9 protein expression at 10 uM incubated for 48 hrs by Western blot analysis; format: functional, cell-based
A549 [33] = assay: Induction of apoptosis in human A549 cells assessed as increase in p53 protein expression at 10 uM incubated for 48 hrs by Western blot analysis; format: functional, cell-based
A549 [34] = assay: Induction of apoptosis in human A549 cells assessed as decrease in bcl-2 protein expression at 10 uM incubated for 48 hrs by Western blot analysis; format: functional, cell-based
A549 [35] = assay: Induction of apoptosis in human A549 cells assessed as increase in bax protein expression at 10 uM incubated for 48 hrs by Western blot analysis; format: functional, cell-based
A549 [36] = assay: Induction of apoptosis in human A549 cells assessed as upregulation of caspase-3 protein expression at 10 uM incubated for 48 hrs by Western blot analysis; format: functional, cell-based
A549 [37] = assay: Induction of apoptosis in human A549 cells assessed as downregulation of EGFR expression level at 10 uM incubated for 48 hrs by Western blot analysis; format: functional, cell-based

For `CN1c2ccccc2C(=O)N2CCc3c([nH]c4ccc(O)cc34)[C@H]21`, the Activity (A549 [1]) was 21.77%, the IC50 (A549 [2]) was 7.74 µM and the viability at 10 µM (A549 [3]) was 70.2%. The Activity (A549 [4]) was 27.8%, the IC50 (A549 [5]) was 11.1 µM and the IC50 [6] was 3.05 µM. It also gave a viability at 10 µM (A549 [7]) of 62%, an IC50 (PC-9 [8]) of 10.7 µM and an Activity (A549 [9]) of 89.36%. The Activity (A549 [10]) was 0.34%, the Activity (A549 [11]) was 1.7% and the IC50 (NCI-H460 [12]) was 12.8 µM. It also gave an Activity (A549 [13]) of 1.26%, an Activity (A549 [14]) of 10.64% and an IC50 (PC-9 [15]) of 1.72 µM. The Activity (A549 [16]) was 78.23%, the Activity (A549 [17]) was 34.6% and the IC50 [18] was 10 µM. For the same compound, the Activity (A549 [19]) was 2.12% and the IC50 (NCI-H460 [20]) was 27.8 µM.
In the case of `CN1c2ccccc2C(=O)N2CCc3c([nH]c4ccccc34)[C@H]21`, the IC50 (A549 [2]) is reported as 9.19 µM, the IC50 (A549 [5]) is reported as 24.7 µM and the IC50 [6] is reported as 4.81 µM. For the same compound, the IC50 (PC-9 [8]) was 10.2 µM, the IC50 (NCI-H460 [12]) was 13.4 µM and the IC50 (PC-9 [15]) was 2.37 µM. For the same compound, the IC50 [18] was 11.3 µM and the IC50 (NCI-H460 [20]) was 17.1 µM.
`C#Cc1cccc(Nc2ncnc3cc(OCCOC)c(OCCOC)cc23)c1` [ERLOTINIB] showed an Activity (A549 [1]) of 37.13%, a viability at 10 µM (A549 [3]) of 93% and an Activity (A549 [4]) of 4.82%. The Activity (A549 [21]) was 10.64%, the IC50 (A549 [5]) was 23.5 µM and the IC50 (PC-9 [8]) was 1.8 µM. It also gave an Activity (A549 [22]) of 2.12%, a viability at 10 µM (A549 [23]) of 62% and an Activity (A549 [24]) of 89.36%. The Activity (A549 [10]) was 1%, the Activity (A549 [11]) was 1.21% and the Activity (A549 [25]) was 1.26%. For the same compound, the IC50 (A549 [26]) was 7.74 µM, the Activity (A549 [27]) was 34.6% and the IC50 (PC-9 [28]) was 1.72 µM. The IC50 [29] was 4.81 µM, the Activity (A549 [16]) was 61.87% and the IC50 (PC-9 [30]) was 2.37 µM. The IC50 [18] was 6.92 µM, the IC50 (cells) was 3.05 µM and the IC50 (A549 [31]) was 9.19 µM.
For `COCCOc1cc2ncnc(Nc3cccc(-c4cn(CCOCCOCCOCCNC(=O)Cn5c(C)c(COC(=O)N(C)CCN(C)C(=O)Oc6ccc7[nH]c8c(c7c6)CCN6C(=O)c7ccccc7N(C)[C@H]86)c6c5C(=O)C=C(OC)C6=O)nn4)c3)c2cc1OCCOC`, the Activity (A549 [1]) was 37.3%, the Activity (A549 [32]) was “Active” and the viability at 10 µM (A549 [3]) was 77.4%. For the same compound, the Activity (A549 [4]) was 20.9%, the Activity (A549 [33]) was “Active” and the IC50 (A549 [5]) was 3.79 µM. For the same compound, the Activity (A549 [34]) was “Active”, the Activity (A549 [35]) was “Active” and the IC50 (PC-9 [8]) was 1.14 µM. The Activity (A549 [36]) was “Active”, the Activity (A549 [10]) was 0.65% and the Activity (A549 [11]) was 1.07%. For the same compound, the Activity (A549 [16]) was 62.7%, the IC50 [18] was 4.14 µM and the Activity (A549 [37]) was “Active”. The IC50 (NCI-H460 [20]) was 10.6 µM.
